Results: DBAASP
Converted amounts (≈) assume the structure as drawn. “And” between values parts separate entries of the source, which are not always exact repeats. Equal values may be shown once. Each block holds one compound with its values, some of them ahead of it.

Columns and labels:
Assay in all cases: ≥ marks a high value that may be exact or a test limit, other limits are often not marked, values filed in µg/mL are converted to µM
[1] = test system: Bacillus subtilis
[2] = test system: Enterococcus faecalis
[3] = test system: Enterococcus faecium
[4] = test system: Escherichia coli ATCC 25922
[5] = test system: Klebsiella pneumoniae
[6] = test system: Pseudomonas aeruginosa PAO1
[7] = test system: Staphylococcus aureus ATCC 43300
[8] = test system: Staphylococcus epidermidis BCM0060
[9] = test system: Streptococcus pneumoniae
[10] = test system: Aspergillus flavus KCTC 6905
[11] = test system: Candida albicans CCARM 14001
[12] = test system: Candida albicans CCARM 14004
[13] = test system: Candida albicans CCARM 14007
[14] = test system: Candida albicans CCARM 14020
[15] = test system: Candida albicans KCTC 7270
[16] = test system: Candida krusei CCARM 14017
[17] = test system: Candida parapsilosis CCARM 14016
[18] = test system: Colletotrichum gloeosporioides KCTC 6169
[19] = test system: Fusarium graminearum KCTC 16656
[20] = test system: Fusarium oxysporum KCTC 16909
[21] = test system: Fusarium solani KCTC 6326
[22] = test system: Fusarium verticillioides KCTC 6149
[23] = test system: Trichoderma virens KCTC 16924
[24] = test system: Trichoderma viride KCTC 16992
[25] = test system: Trichophyton rubrum KCTC 6345
[26] = test system: Erwinia amylovora PMV 6076
[27] = test system: Pseudomonas syringae pv. actinidiae Psa3700.1.1
[28] = test system: Pseudomonas syringae pv. syringae EPS 94
[29] = test system: Xanthomonas arboricola pv. pruni CFBP 5563
[30] = test system: Xanthomonas campestris pv. Vesicatoria 2133-2
[31] = test system: Xanthomonas fragariae Xf349-9A
[32] = test system: Bacillus subtilis KCTC 3068
[33] = test system: Enterococcus faecium ATCC 51559
[34] = test system: Pseudomonas aeruginosa CCARM 2095
[35] = test system: Pseudomonas aeruginosa CCARM 2109
[36] = test system: Pseudomonas aeruginosa KCTC 1637
[37] = test system: Salmonella typhimurium KCTC 1926
[38] = test system: Staphylococcus aureus CCARM 3089
[39] = test system: Staphylococcus aureus CCARM 3090
[40] = test system: Staphylococcus aureus CCARM 3095
[41] = test system: Staphylococcus epidermidis KCTC 1917
[42] = test system: Candida albicans ATCC 14053
[43] = test system: Escherichia coli ATCC 11775
[44] = test system: Micrococcus luteus ATCC 49732
[45] = test system: Staphylococcus aureus ATCC 12600
[46] = test system: Acinetobacter baumannii ATCC 19606
[47] = test system: Klebsiella pneumoniae ATCC 13883
[48] = test system: Pseudomonas aeruginosa ATCC 27853
[49] = test system: Staphylococcus aureus ATCC 29213
[50] = test system: Staphylococcus haemolyticus
[51] = test system: Staphylococcus lugdunensis
[52] = test system: Staphylococcus warneri

SMILES: CC[C@H](C)[C@H](NC(=O)CNC(=O)[C@@H](N)Cc1ccc(O)cc1)C(=O)N[C@@H](Cc1cnc[nH]1)C(=O)N[C@H](C(=O)N[C@@H](Cc1cnc[nH]1)C(N)=O)[C@@H](C)O [YGIHTH]
MIC [26]: ≥ 50 µM
MIC [27]: ≥ 50 µM
MIC [28]: ≥ 50 µM
MIC [29]: ≥ 50 µM
MIC [30]: ≥ 50 µM
MIC [31]: ≥ 50 µM

SMILES: CC(C)[C@H](NC(=O)[C@H](C)NC(=O)[C@@H](NC(=O)CNC(=O)[C@@H]1CCCN1)[C@@H](C)O)C(=O)N[C@@H](Cc1ccccc1)C(=O)N[C@@H](C)C(=O)O [PGTAVFA]
MIC [42]: ≥ 1010 µM
MIC [43]: ≥ 1010 µM
MIC [44]: ≥ 1010 µM
MIC [45]: ≥ 1010 µM

Second part, led by results:

MIC [1]: 1.33 µM (≈ 2.7 µg/mL)
MIC [2]: 1 µM (≈ 2.03 µg/mL)
MIC [3]: 0.3 µM (≈ 0.609 µg/mL)
MIC [4]: 1 µM and 3 µM
MIC [5]: 4.7 µM (≈ 9.55 µg/mL)
MIC [6]: 1.7 µM (≈ 3.45 µg/mL)
MIC [7]: 1.3 µM and 2.7 µM
MIC [8]: 2.3 µM (≈ 4.67 µg/mL)
MIC [9]: 9.3 µM (≈ 18.9 µg/mL)
SMILES: CC[C@H](C)[C@H](NC(=O)[C@H](CCCCN)NC(=O)[C@H](Cc1c[nH]c2ccccc12)NC(=O)[C@H](CCCN=C(N)N)NC(=O)[C@H](CCCN=C(N)N)NC(=O)CNC(=O)[C@H](Cc1cnc[nH]1)NC(=O)CNC(=O)CN)C(=O)N[C@H](C(=O)N[C@H](C(=O)N[C@H](C(=O)N[C@@H](CCCN=C(N)N)C(=O)N[C@@H](Cc1c[nH]c2ccccc12)C(=O)N[C@@H](CCCN=C(N)N)C(=O)N[C@@H](CCCN=C(N)N)C(N)=O)[C@@H](C)CC)C(C)C)C(C)C [GGHGRRWKIVVIRWRR]

MIC [10]: ≥ 64 µM
MIC [11]: ≥ 64 µM
MIC [12]: ≥ 64 µM
MIC [13]: ≥ 64 µM
MIC [14]: ≥ 64 µM
MIC [15]: ≥ 64 µM
MIC [16]: ≥ 64 µM
MIC [17]: ≥ 64 µM
MIC [18]: 16 µM (≈ 12.9 µg/mL)
MIC [19]: ≥ 64 µM
MIC [20]: ≥ 64 µM
MIC [21]: ≥ 32 µM
MIC [22]: ≥ 32 µM
MIC [23]: ≥ 32 µM
MIC [24]: ≥ 64 µM
MIC [25]: ≥ 64 µM
SMILES: NCCCC[C@H](NC(=O)[C@H](CCCCN)NC(=O)[C@H](Cc1cnc[nH]1)NC(=O)[C@H](CCCCN)NC(=O)[C@H](CCCCN)NC(=O)[C@@H](N)Cc1cnc[nH]1)C(N)=O [HKKHKK]

MIC [32]: 4 µM (≈ 9.94 µg/mL)
MIC [33]: 2 µM (≈ 4.97 µg/mL)
MIC [34]: 4 µM (≈ 9.94 µg/mL)
MIC [35]: 4 µM (≈ 9.94 µg/mL)
MIC [36]: 2 µM (≈ 4.97 µg/mL)
MIC [37]: 1 µM (≈ 2.49 µg/mL)
MIC [38]: 2 µM (≈ 4.97 µg/mL)
MIC [39]: 2 µM (≈ 4.97 µg/mL)
MIC [40]: 2 µM (≈ 4.97 µg/mL)
MIC [41]: 2 µM (≈ 4.97 µg/mL)
SMILES: C[C@H](NC(=O)[C@H](CCCCN)NC(=O)[C@H](Cc1ccc(O)cc1)NC(=O)[C@H](Cc1c[nH]c2ccccc12)NC(=O)[C@H](CCCCN)NC(=O)[C@H](CCCCN)NC(=O)[C@H](Cc1ccccc1)NC(=O)[C@H](CCCN=C(N)N)NC(=O)[C@@H](N)CCCCN)C(=O)N[C@@H](Cc1c[nH]c2ccccc12)C(=O)N[C@@H](CCCN=C(N)N)C(=O)N[C@@H](CCCCN)C(=O)N[C@@H](CCCCN)C(=O)N[C@@H](Cc1c[nH]c2ccccc12)C(=O)N[C@@H](CCCN=C(N)N)C(=O)N[C@@H](CCCCN)C(=O)N[C@@H](Cc1ccc(O)cc1)C(N)=O [KRFKKWYKAWRKKWRKY]

MIC [46]: 8 µM (≈ 20.1 µg/mL)
MIC [4]: 11.3 µM (≈ 28.4 µg/mL)
MIC [47]: 8 µM (≈ 20.1 µg/mL)
MIC [48]: 8 µM (≈ 20.1 µg/mL)
MIC [49]: 1 µM (≈ 2.51 µg/mL)
MIC [51]: 24.9 µM (≈ 62.5 µg/mL)
MIC [52]: 12.5 µM (≈ 31.3 µg/mL)
SMILES: CC(C)C[C@H](NC(=O)CN)C(=O)N[C@@H](CC(C)C)C(=O)N[C@@H](CCCN=C(N)N)C(=O)N[C@@H](C)C(=O)N[C@@H](CO)C(=O)N[C@@H](CO)C(=O)N[C@@H](CCCCN)C(=O)N[C@@H](Cc1c[nH]c2ccccc12)C(=O)NCC(=O)N[C@@H](CCCN=C(N)N)C(=O)N[C@@H](CCCCN)C(=O)N[C@@H](Cc1ccc(O)cc1)C(=O)N[C@@H](Cc1ccc(O)cc1)C(=O)N[C@H](C(=O)N[C@@H](CC(=O)O)C(=O)N[C@@H](CC(C)C)C(=O)N[C@@H](C)C(=O)NCC(=O)N[C@@H](CS)C(=O)N[C@@H](C)C(=O)N[C@@H](CCCCN)C(=O)N[C@@H](C)C(=O)O)C(C)C [GLLRASSKWGRKYYVDLAGCAKA]
MIC [50]: 24.9 µM (≈ 62.5 µg/mL)
